Series [1] is described as follows: Intrinsic clearance in rat liver microsomes. The format is ADME, Microsome.
A short description of series [2]: Intrinsic clearance in human liver microsomes. The class given is ADME, Microsome. A general note: Liver microsomes are vesicles of endoplasmic reticulum, rich in cytochrome P450 enzymes.
The nature of series [3]: Clearance in ICR mouse. The format is ADME, organism-based. The note with it: in vivo.
Series [4] can be described thus: Volume of distribution at steady state in ICR mouse. The format is ADME, organism-based. To be noted: in vivo, read-out: Vdss.
Series [5] is described as follows: Half life in ICR mouse. The class given is ADME, organism-based. To be noted: in vivo.
The nature of series [6]: Ratio of Cmax in brain to plasma in ICR mouse. The format is ADME. The note with it: brain and plasma.
Series [7] can be described thus: Intrinsic clearance in dog hepatic microsomes. The format is ADME, Canis lupus familiaris, Liver, Microsome.
The nature of series [8]: Clearance in Wistar rat. The class given is ADME, organism-based. The note with it: in vivo.
Series [9] in a line: Volume of distribution at steady state in Wistar rat. The note with it: in vivo, read-out: Vdss. The class given is ADME, organism-based.
The nature of series [10]: Half life in Wistar rat. The class given is ADME, organism-based. The note with it: in vivo.
Series [11] can be described thus: Clearance in Beagle dog. The note with it: in vivo. The format is ADME, organism-based, Canis lupus familiaris.
Series [12] in a line: Volume of distribution at steady state in Beagle dog. The class given is ADME, organism-based, Canis lupus familiaris. The note with it: in vivo, read-out: Vdss.
Series [13] is described as follows: Half life in Beagle dog. To be noted: in vivo. The class given is ADME, organism-based, Canis lupus familiaris.
The nature of series [14]: Intrinsic clearance in mouse hepatic microsomes. The class given is ADME, Microsome. To be noted: liver microsomes.

A value given as a limit tells only on which side of the number the result lay.

Turning to `OC1CCN(Cc2csc(-c3cn(CC4CCOCC4)c4c(Cl)cccc34)n2)CC1`, the values for the microsomal CLint in series [1] and in series [2] were 16 µL/min/mg and 12 µL/min/mg, respectively.
`CCc1cccc2c(-c3nsc(CN4CCCC4)n3)cn(CC3CCCCC3)c12.Cl` had a clearance in [3] of 28 mL/min/kg. Further, in series [4], the Vd worked out at 1.4 L/kg. Also, the half-life in series [5] was found to be 1.2 h. For the same compound, in [6], the Kp worked out at 0.05.
For the compound `CN(CCO)Cc1csc(-c2cn(CC3CCOCC3)c3c(Cl)cccc23)n1`, the microsomal CLint in [1] is 167 µL/min/mg; in series [2], below 16 µL/min/mg.
`CC(C)N(CCO)Cc1csc(-c2cn(CC3CCOCC3)c3c(Cl)cccc23)n1`: the values for the microsomal CLint in series [1], in series [2] and in series [14] were above 160 µL/min/mg, 161 µL/min/mg and 176 µL/min/mg, respectively. In series [7], this compound showed a CL of 0.131 mL/min/kg. Also, the clearance in series [3] worked out at 159 mL/min/kg; in series [8], 127 mL/min/kg; in series [11], 28 mL/min/kg. Moreover, the Vd in series [4] was found to be 11.3 L/kg; in series [9] it was 15 L/kg; in series [12], 5 L/kg. Besides, the half-life worked out at 1.38 h in series [5], 1.6 h in [10] and 3 h in series [13]. For the same compound, the Kp in series [6] was 3.9.
As for `OCCN(CCO)Cc1csc(-c2cn(CC3CCOCC3)c3c(Cl)cccc23)n1`, the microsomal CLint was above 270 µL/min/mg in [1] and 111 µL/min/mg in series [2].
As for `CCc1sc(-c2cn(CC3CCOCC3)c3c(Cl)cccc23)nc1CN(CC)CCO`, the microsomal CLint in series [1] was above 270 µL/min/mg; in series [2], 114 µL/min/mg.
Taken in the same sequence, the figures for `Clc1cccc2c(-c3nc(CN4CCOCC4)cs3)cn(CC3CCOCC3)c12` were above 270 µL/min/mg and 97.9 µL/min/mg.
Taken in the same sequence, the figures for `COC1CCN(Cc2csc(-c3cn(CC4CCOCC4)c4c(Cl)cccc34)n2)CC1` were above 270 µL/min/mg and 80.4 µL/min/mg.
As for `COCCN(C)Cc1csc(-c2cn(CC3CCCCC3)c3c(Cl)cccc23)n1`, the microsomal CLint in series [1] is 22 µL/min/mg; in series [2], 36 µL/min/mg.

One may read the microsomal CLint as a measure of how fast metabolising enzymes remove a compound, apart from limits set by blood flow. A lower microsomal CLint goes with greater metabolic stability. As usually defined, the clearance is the rate of elimination divided by the concentration. Broadly, the half-life is the time in which the quantity being followed falls by half. The low end stands for fast loss, the high end for slow loss. By Kp is commonly meant the ratio of the level in a tissue or fluid to that in plasma or blood.

These data come from ChEMBL document CHEMBL1759932, “Design, synthesis and structure-activity relationships of (indo-3-yl) heterocyclic derivatives as agonists of the CB1 receptor. Discovery of a clinical candidate” (Bioorg Med Chem Lett, 2011).
